Data as given in PMC3280214, “Structure Based Discovery of Small Molecules to Regulate the Activity of Human Insulin Degrading Enzyme” (PLoS ONE, 2012).

Target: T1, IDE (Homo sapiens, UniProt P14735)
T1 construct: made in house; host or cells: E. coli BL21
T1 sequence (P14735 1-1019): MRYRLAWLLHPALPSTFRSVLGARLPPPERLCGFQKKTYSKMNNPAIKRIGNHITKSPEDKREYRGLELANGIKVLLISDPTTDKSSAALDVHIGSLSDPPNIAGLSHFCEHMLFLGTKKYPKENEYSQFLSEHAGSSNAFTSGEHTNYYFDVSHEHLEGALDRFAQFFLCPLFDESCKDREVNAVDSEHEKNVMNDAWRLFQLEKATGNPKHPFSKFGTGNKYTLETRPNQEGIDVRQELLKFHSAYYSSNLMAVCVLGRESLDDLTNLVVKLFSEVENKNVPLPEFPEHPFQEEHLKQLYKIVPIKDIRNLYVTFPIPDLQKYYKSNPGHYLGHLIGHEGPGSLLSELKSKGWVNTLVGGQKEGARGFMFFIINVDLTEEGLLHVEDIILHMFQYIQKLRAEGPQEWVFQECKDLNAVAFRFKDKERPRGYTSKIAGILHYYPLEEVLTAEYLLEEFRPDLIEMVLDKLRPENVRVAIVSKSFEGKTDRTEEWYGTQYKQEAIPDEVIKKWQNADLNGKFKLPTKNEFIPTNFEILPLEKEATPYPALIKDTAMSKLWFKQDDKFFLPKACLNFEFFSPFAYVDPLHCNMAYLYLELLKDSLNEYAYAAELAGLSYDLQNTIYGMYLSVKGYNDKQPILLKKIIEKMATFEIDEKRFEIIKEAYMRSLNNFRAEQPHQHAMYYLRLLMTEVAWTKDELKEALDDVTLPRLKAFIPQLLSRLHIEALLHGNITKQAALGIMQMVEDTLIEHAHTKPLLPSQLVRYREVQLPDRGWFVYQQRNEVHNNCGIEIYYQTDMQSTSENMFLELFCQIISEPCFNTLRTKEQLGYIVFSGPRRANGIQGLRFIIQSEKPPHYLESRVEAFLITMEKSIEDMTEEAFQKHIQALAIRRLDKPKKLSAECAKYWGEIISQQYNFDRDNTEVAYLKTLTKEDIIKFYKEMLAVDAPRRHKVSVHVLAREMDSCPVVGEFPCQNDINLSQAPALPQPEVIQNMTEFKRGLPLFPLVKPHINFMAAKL
Assay: Enzymatic competition assay with bradykinin
Format: biochemical
Details: bradykinin 2.1, 4.2 and 8.4 mM; varying D10 (0–50 µM)
Source text: Since D10 has been found as the strongest activator of IDE towards the proteolysis of insulin, we analyzed the binding site of the compound D10 for the further analysis. According to the computational results, D10 binds to Gln363 at the IDE exosite and His332 (Fig. 1D). We carried out site-directed mutagenesis by replacing these amino acids into Ala in order to verify that D10 indeed binds to this region via these amino acids. We first mutated Gln363 to Ala and then expressed and purified mutant protein through nickel resin. The effect of D10 on the proteolytic activity of mutant IDE (Gln363Ala) was measured towards FITC-insulin-mAb degradation. […] The activation was about 49-fold in the presence of D10 with wild type IDE (Fig. 2B). Although mutant IDE activity was less responsive to D10 compound compared to wild type IDE, it appeared as if D10 were interacting with IDE through […] and could enhance the activity of mutant IDE. Therefore, we generated a double mutant IDE (Gln363Ala, His332Ala) in order to eliminate the binding of D10 to the exosite region completely. […]
The effect of the bradykinin on the clearance of insulin was measured in the presence of compound D10. […] The fluorescence increase was monitored by using Fluoroskan Ascent FL microplate reader (Thermo).

Cc1nn(-c2ccccc2)c2nc(-c3cccc([N+](=O)[O-])c3)n3c4ccccc4nc3c2c1=O [Compound D10]
decrease of insulin degradation in presence of compound when bradykinin is added: about 50%
